This is an account of results in patent US11299715B2, “Use of iNOS inhibitors to increase viral yield in culture” (priority 2013, dated 2022).

One assay deals with NOS1 = nNOS. As to the kind of experiment: Affymetrix Gen Array, NOS1 expression in 293 cells. As to conditions: for NOS1 expression, ATA: ATA alone. It counts as cell-based, human. The procedure:
Confluent 293 cells (2.4×10^6 cells in a 75 cm^2 flask) were cultured in DMEM+10% FCS for approximately 20 hrs and were then infected with one plaque forming unit per cell (PFU/cell) of HSV-1 MacIntyre Strain for 90 min. ATA at a concentration 20 μM (final) was added 90 min post-infection. The infected cells were harvested at 24 h after infection. Total RNA of sufficient quality and quantity was isolated from suspension using RNeasy Plus Mini Kit (QIAGEN, Valencia, Calif.) according to the manufacturer's instructions. Whole genome expression profiling was performed on Affymetrix Human U133 Plus 2.0 Array by the Asuragen, Inc. 3 μg total RNA was provided as input material.
Overall, RNA quality assessed on the bioanalyzer had RIN values of >9. Array hybridization and scaling factors were within passing quality control range. After scanning, raw expression CEL files were processed with Affymetrix Expression Console vs.1.1.2 (affymetrix.com). Each CEL file was processed with Robust Multichip Analysis (RMA) and a summarized table was exported as a text file. All downstream genomics and statistical analyses were done with JMP Genomics (version 5) (jmp.com/software/genomics). First, a filtering step was applied to filter-out low expression, specifically, those values below 6 in log^2 mode in at least 2 out of 8 samples. Out of 54,675 total Affy U133 Plus2 probes, 41,569 (76%) probes remained after the cutoff. Two positive control samples were also seen, human brain and pooled human universal reference RNA, respectively, that hybridized well. For future analysis, these two samples were excluded.
The first principle component separation (91.7%) is therefore explained by the effect of HSV versus Vehicle. Data was median-normalized across each probe to have a median signal of 0. ANOVA was performed to find significant differential transcripts between HSV versus Vehicle, ATA versus Vehicle, […] versus Vehicle, and HSV+ATA versus HSV alone. Multiple testing corrections were not included, and significant genes were considered less that p-value of 0.01.
To identify cell response gene signatures to wtHSV-1 McIntyre infection, transcriptional profiling was done using Affymetrix Human U133 Plus 2.0 Array with 293 cells that were either mock-treated, ATA-treated (ATA), wtHSV-1 McIntyre-infected (HSV) or ATA-treated and wtHSV-1 McIntyre-infected (HSV&ATA) for 24 h. Gene expression changes induced by infection or ATA treatment were identified by referencing the gene expression level for each probe to that corresponding in the uninfected cells sample. HSV-1 infection alone had strong impact on the gene expression profile of 293 cells when compared to untreated cells gene profile.

A short description of assay [1]: SABiosciences (QIAGEN) Jak-Stat RT-PCR Microarray in 293 cells. The note with it: listed as printed as NOS1, 240911_at. It counts as cell-based, human. The procedure: 6×10e5 293 cells (from AGTC) were infected with wtHSV-1 McIntyre strain at MOI 1 in the presence of DMEM & 10% FBS with or without 50 uM ATA and 1-2 hours and diluted to 40% with DMEM & 10% FBS (final ATA concentration of 20 uM). Triplicate total RNA samples were harvested 24 hrs later using Qiagen RNeasy mini kit and DNase treated on the column and eluted. Eluate RNA triplicate samples were combined and photospectrometer O.D. readings were performed on the eluate at 260 and 280 nm to determine concentration. Sample RNA was converted into template cDNA using SABiosciences RT2 first strand kit. The cDNA was then used in the Human JAK/STAT Signaling Pathway PCR Array (PAHS-039A).

In assay [2] the test system is rHSV-1 d27-1 (d27-1) vector. Briefly: ATA-HSV protocol: rHSV-1 d27-1 vector yield in V27 cell supernatants. As to conditions: V27 cells, n=10, ATA 50 μM at Step 1, final 20 μM. It counts as cell-based, HSV-1.

Molecules are shown by their SMILES.

For the compound `O=C(O)C1=CC(=C(c2ccc(O)c(C(=O)O)c2)c2ccc(O)c(C(=O)O)c2)C=CC1=O` [ATA, 5-((3-carboxy-4-hydroxyphenyl)(3-carboxy-4-oxo-2,5-cyclohexadien-1-ylidene)methyl)-2-hydroxybenzoic acid], the “NOS1 expression, ATA” value with NOS1 = nNOS (probe 207310_s_at) is 1; in the assay on NOS1 = nNOS (probe 240911_at) it was 1.02. In addition, the “NOS1 expression, HSV + ATA” value in the assay on NOS1 = nNOS (probe 207310_s_at, HSV alone 2.79) came out at 1.67; in the assay on NOS1 = nNOS (probe 240911_at, HSV alone 1.71), 1.5. The “expression, ATA (Jak-Stat RT-PCR Microarray)” value in assay [1] (ATA alone) was determined as 1.02. Further, the “expression, HSV + ATA (Jak-Stat RT-PCR Microarray)” value in assay [1] (HSV + ATA, HSV alone 1.71) was determined as 1.5. Moreover, the “increase of d27-1 titer after ATA addition” value in assay [2] (6-well plates, MOI 0.15) is listed as 6.1 times. In addition, the “d27-1 titer after ATA addition” value in assay [2] (without ATA 5.4×10^7) is 1.1×10^8 DRP/ml.
